Values of other authors in patent US6803187B1 (priority 1998, dated 2004).

Columns and labels:
HIV protease = settings: HIV-1 protease numbering

SMILES: CC(C)(C)NC(=O)[C@@H]1CN(Cc2cccnc2)CCN1C[C@@H](O)C[C@@H](Cc1ccccc1)C(=O)N[C@H]1c2ccccc2C[C@H]1O [MK-639, indinavir]
- share of indinavir resistant isolates cross-resistant to nelfinavir (HIV; human, in vivo): Approximately one third

SMILES: CC(C)(C)NC(=O)[C@@H]1C[C@@H]2CCCC[C@@H]2CN1C[C@@H](O)[C@H](Cc1ccccc1)NC(=O)[C@H](CC(N)=O)NC(=O)c1ccc2ccccc2n1 [Ro 31-8959, saquinavir]
- patients in whom resistant variants emerge (HIV; after 1 year of monotherapy, mutations at positions 90 and/or 48): approximately 45%

SMILES: CC(C)CN(C[C@@H](O)[C@H](Cc1ccccc1)NC(=O)O[C@H]1CCOC1)S(=O)(=O)c1ccc(N)cc1 [VX-478]
- amino acid position/codon whose change confers resistance (HIV protease): 50
